We go through 20 compounds from patent publication US20250019385A1, “SPIROCYCLIC ANNULATED 2-AMINO-3-CYANO THIOPHENES AND DERIVATIVES FOR THE TREATMENT OF CANCER” (Boehringer Ingelheim International GmbH, priority 2023, published 2025).

pIC50: −log10 of the molar value. Where two headings read alike, the source gives them in different places.

The nature of data set [1]: Metabolic (microsomal) stability assay, human liver microsomes (HLM). Type of data set: in vitro ADME. Conditions: 1 μM test compound, predicted clearance as percent of liver blood flow. On the procedure:
The metabolic degradation of the test compound is assayed at 37° C. with pooled liver microsomes (mouse (MLM), rat (RLM) or human (HLM)). The final incubation volume of 48 μL per time point contains TRIS buffer (pH 7.5; 0.1 M), magnesium chloride (6.5 mM), microsomal protein (0.5 mg/mL for mouse/rat, 1 mg/mL for human specimens) and the test compound at a final concentration of 1 μM. Following a short preincubation period at 37° C., the reactions are initiated by addition of 12 μL beta-nicotinamide adenine dinucleotide phosphate, reduced form (NADPH, 10 mM) and terminated by transferring an aliquot into solvent after different time points (0, 5, 15, 30, 60 min). Additionally, the NADPH-independent degradation is monitored in incubations without NADPH, terminated at the last time point by addition of acetonitrile. The quenched incubations are pelleted by centrifugation (4,000 rpm, 15 min). An aliquot of the supernatant is assayed by LC-MS/MS to quantify the concentration of parent compound in the individual samples.
In vitro intrinsic clearance (CLint,in vitro) is calculated from the time course of the disappearance of the test drug during the microsomal incubation. Each plot is fitted to the first-order elimination rate constant as C(t)=C0*exp(−ke*t), where C(t) and C0 are the concentration of unchanged test drug at incubation time t and that at preincubation and ke is the disappearance rate constant of the unchanged drug. Subsequently, CLint, in vitro (μL min^−1·amount protein) values are converted to predicted CLint,in vivo (mL min^−1·kg^−1) from incubation parameters according to the equation CLint, in vivo=CLint, in vitro×(incubation volume (mL)/amount protein (mg))×(amount protein (mg)/g liver tissue)×(liver weight/body wt.).
For better across species comparison the predicted clearance is expressed as percent of the liver blood flow [% QH] (mL min^−1·kg^−1) in the individual species. In general, high stability (corresponding to low % QH) of the compounds across species is desired.

The test system of another data set is Ba/F3 cells KRAS G12V. Briefly: Ba/F3 proliferation assay (KRAS G12V). The data set is classed as cell-based. To be noted: AlamarBlue viability. On the procedure: Ba/F3 cells are ordered from DSMZ (ACC300, Lot17) and grown in RPMI-1640 (ATCC 30-2001)+10% FCS+10 ng/mL IL-3 at 37° C. in 5% […] atmosphere. Plasmids containing KRASG12 mutants (i.e. […], G12C, G12V) are obtained from GeneScript. To generate KRASG12-dependent Ba/F3 models, Ba/F3 cells are transduced with retroviruses containing vectors that harbor KRASG12 isoforms. Platinum-E cells (Cell Biolabs) are used for retrovirus packaging. Retrovirus is added to Ba/F3 cells. To ensure infection, 4 μg/mL polybrene is added and cells are spinfected. Infection efficiency is confirmed by measuring GFP-positive cells using a cell analyzer. Cells with an infection efficiency of 10% to 20% are further cultivated and puromycin selection with 1 μg/mL is initiated. As a control, parental Ba/F3 cells are used to show selection status. Selection is considered successful when parental Ba/F3 cells cultures died. To evaluate the transforming potential of KRASG12 mutations, the growth medium is no longer supplemented with IL-3. Ba/F3 cells harboring the empty vector are used as a control. Approximately ten days before conducting the experiments, puromycin is left out.
For proliferation assays, Ba/F3 cells are seeded into 384-well plates at 1.5×1 (M cells/60 μL in growth media (RPMI-1640+10% FCS). Compounds (10 mM stock in DMSO) are added at logarithmic dose series using the ECHO acoustic liquid handler system (Beckman Coulter), normalizing for added DMSO and including DMSO controls. All compound treatments are performed in technical duplicates. For the TO time point measurement, untreated cells are analyzed at the time of compound addition. Treated cells are incubated for 72 h at 37° C. with 5% CO2 and cell viability is measured in the PerkinElmer Envision Multimode Reader using AlamarBlue™ (ThermoFisher) viability stain. Viability (stated as percent of control) is defined as relative fluorescence units RFU of each well divided by the RFU of cells in DMSO controls. IC50 values are determined from viability measurements by non-linear regression using a four-parameter model.
For orientation: The colour change of resazurin is a common sign of viable cells or microbes.

For another data set, the system named is NCI-H727 cells. Description: NCI-H727 CTG proliferation assay (120 h) (lung cancer, G12V). Conditions: Homo sapiens. The data set is classed as cell-based. On the procedure: (§1) NCI-H727 cells (ATCC No. CRL-5815) are dispensed into black 384-well plates, flat and clear bottom (Greiner, PNr. 781091) at a density of 500 cells per well in 60 μl RPMI ATCC-Formulation (PAN P04-18047)+10% FCS (fetal calf serum, HyClone, SH30084.03). Cells are incubated overnight at 37° C. in a humidified tissue culture incubator at 5% CO2. Compounds (10 mM stock in DMSO) are added at logarithmic dose series using the ECHO acoustic liquid handler system (Beckman Coulter), normalizing for added DMSO and including DMSO controls. All compound treatments are performed in technical duplicates. For the TO time point measurement, untreated cells are analyzed at the time of compound addition. Plates are incubated for 120 h, and cell viability is measured using CellTiter-Glo luminescent cell viability reagent (Promega product code G7570). Viability (stated as percent of control) is defined as relative luminescence units RLU of each well divided by the RLU of cells in DMSO controls. IC50 values are determined from viability measurements by non-linear regression using a four-parameter model.
(§2) IC50 values of representative compounds according to the invention measured with these assays in the indicated cell lines are presented in Table 46.

The next data set has as its system SK-CO-1 cells. Briefly: SK-CO-1 CTG proliferation assay (120 h) (CRC, G12V). Type of data set: cell-based. On the procedure:
as §1, with “SK—CO-1” for “NCI-H727”, “HTB-39)” for “No. CRL-5815)”, “EMEM (Sigma M5650)+10%” for “RPMI ATCC-Formulation (PAN P04-18047)+10%”
as §2

As a reminder, the pIC50 is −log10 of the IC50, conventionally taken in molar units. A higher pIC50 goes with a low IC50. Regarding `COCCn1c(=O)n([C@@H]2CCOC2)c2nc(-c3onc4c3CCC[C@@]43CCCc4sc(N)c(C#N)c43)nc(O[C@@H](C)[C@@H]3CCCN3C)c21` [I-1], the “HLM QH” value in data set [1] was 65%. Also, the pIC50 in the data set with Ba/F3 cells KRAS G12V (Mus musculus, BaF3, 72 h) was 8.10; in the data set with NCI-H727 cells it was 8.00; in the data set with SK-CO-1 cells (Homo sapiens), 8.10.
In the case of `CO[C@H]1C[C@@H]([C@H](C)Oc2nc(-c3onc4c3CCC[C@@]43CCCc4sc(N)c(C#N)c43)nc3c2n(C)c(=O)n3[C@@H]2CCOC2)N(C)C1` [I-2], in data set [1], the “HLM QH” value is listed as 73%. Besides, the pIC50 was 7.68 in the data set with Ba/F3 cells KRAS G12V (Mus musculus, BaF3, 72 h); 7.85 in the data set on NCI-H727 cells; 7.37 in the data set on SK-CO-1 cells (Homo sapiens).
The matching figures for `CO[C@@H]1C[C@@H]([C@H](C)Oc2nc(-c3onc4c3CCC[C@@]43CCCc4sc(N)c(C#N)c43)nc3c2n(C)c(=O)n3[C@@H]2CCOC2)N(C)C1` [I-3]: 42%, 8.52, 8.30 and 8.40.
Take `C[C@H](Oc1nc(-c2onc3c2CCC[C@@]32CCCc3sc(N)c(C#N)c32)nc2c1n(C)c(=O)n2[C@@H]1CCOC1)[C@@H]1[C@H](F)CCN1C` [I-4]: the “HLM QH” value in data set [1] is 49%. Besides, the pIC50 is 7.60 with Ba/F3 cells KRAS G12V (Mus musculus, BaF3, 72 h); 7.48 with NCI-H727 cells; 7.11 with SK-CO-1 cells (Homo sapiens).
The matching figures for `C[C@H](Oc1nc(-c2onc3c2CCC[C@@]32CCCc3sc(N)c(C#N)c32)nc2c1n(C)c(=O)n2[C@@H]1CCOC1)[C@@H]1[C@@H](F)CCN1C` [I-5]: 65%, 7.85, 7.74 and 7.33.
The matching figures for `CO[C@H]1CCN(C)[C@@H]1[C@H](C)Oc1nc(-c2onc3c2CCC[C@@]32CCCc3sc(N)c(C#N)c32)nc2c1n(C)c(=O)n2[C@@H]1CCCOC1` [I-6]: 73%, 8.70, 8.52 and 8.15.
Turning to `COCCn1c(=O)n(C)c2c(O[C@@H](C)[C@@H]3CCCN3C)nc(-c3onc4c3CCC[C@@]43CCCc4sc(N)c(C#N)c43)nc21` [I-7], the “HLM QH” value in data set [1] is reported as under 24%. For the same compound, the pIC50 in the data set with Ba/F3 cells KRAS G12V (Mus musculus, BaF3, 72 h) is 7.34; in the data set on NCI-H727 cells, 6.46; in the data set with SK-CO-1 cells (Homo sapiens), 6.72.
The matching figures for `C[C@H](Oc1nc(-c2onc3c2CCC[C@@]32CCCc3sc(N)c(C#N)c32)nc2c1[nH]c(=O)n2[C@@H]1CCOC1)[C@@H]1CCCN1C` [I-8]: under 24%, 7.70, 7.92 and 7.72.
On to `C[C@H](Oc1nc(-c2onc3c2CCC[C@@]32CCCc3sc(N)c(C#N)c32)nc2c1n(C)c(=O)n2[C@H]1CCCOC1)[C@@H]1CCCN1C` [I-11], for which the pIC50 is 6.89 in the data set on Ba/F3 cells KRAS G12V (Mus musculus, BaF3, 72 h); 6.30 in the data set on NCI-H727 cells; 6.35 in the data set on SK-CO-1 cells (Homo sapiens).
The matching figures for `C[C@@H]1COC[C@H](n2c(=O)n(C)c3c(O[C@@H](C)[C@@H]4CCCN4C)nc(-c4onc5c4CCC[C@@]54CCCc5sc(N)c(C#N)c54)nc32)C1` [I-44]: 8.70, 8.70 and 8.30.
On to `C[C@H](Oc1nc(-c2onc3c2CCC[C@@]32CCCc3sc(N)c(C#N)c32)nc2c1n(C)c(=O)n2[C@H]1CO[C@@H](C)C1)[C@@H]1CCCN1C` [I-47], for which the “HLM QH” value in data set [1] was under 24%.
In the case of `C[C@H](Oc1nc(-c2onc3c2CCC[C@@]32CCCc3sc(N)c(C#N)c32)nc2c1n(C)c(=O)n2[C@H]1CO[C@@H](C)C1)[C@@H]1CC[C@H](C)N1C` [I-50], the “HLM QH” value in data set [1] is 35%. Besides, in the data set on Ba/F3 cells KRAS G12V (Mus musculus, BaF3, 72 h), the pIC50 was 9.00.
The matching figures for `CO[C@H]1CCN(C)[C@@H]1[C@H](C)Oc1nc(-c2onc3c2CCC[C@@]32CCCc3sc(N)c(C#N)c32)nc2c1n(C)c(=O)n2[C@H]1COC[C@@H](C)C1` [I-51]: 74% and 8.70.
The matching figures for `CO[C@@H]1C[C@@H]([C@H](C)Oc2nc(-c3onc4c3CCC[C@@]43CCCc4sc(N)c(C#N)c43)nc3c2n(C)c(=O)n3[C@H]2COC[C@@H](C)C2)N(C)C1` [I-52]: 46% and 8.52.
For the compound `C[C@H](Oc1nc(-c2noc3c2CCC[C@@]32CCCc3sc(N)c(C#N)c32)nc2c1n(C)c(=O)n2[C@H]1CO[C@@H](C)C1)[C@@H]1CCCN1C` [II-5], the “HLM QH” value in data set [1] was 36%. In the data set on SK-CO-1 cells (Homo sapiens), the pIC50 is 9.00.
As to `C[C@H](Oc1nc(-c2noc3c2CCC[C@@]32CCCc3sc(N)c(C#N)c32)nc2c1CN(c1ncccn1)[C@]21CCOC1)[C@@H]1CCCN1C` [II-7a], the “HLM QH” value in data set [1] is on record as under 24%. Besides, the pIC50 in the data set with Ba/F3 cells KRAS G12V (Mus musculus, BaF3, 72 h) was 8.00; in the data set with SK-CO-1 cells (Homo sapiens) it was 7.49.
Consider `C[C@H](Oc1nc(-c2noc3c2CCC[C@@]32CCCc3sc(N)c(C#N)c32)nc2c1CN(c1ncccn1)[C@@]21CCOC1)[C@@H]1CCCN1C` [II-7b], for which the “HLM QH” value in data set [1] is reported as under 24%. The pIC50 is 7.43 in the data set on Ba/F3 cells KRAS G12V (Mus musculus, BaF3, 72 h) and 6.81 in the data set with SK-CO-1 cells (Homo sapiens).
Take `C[C@H](Oc1nc(-c2noc3c2CCC[C@@]32CCCc3sc(N)c(C#N)c32)nc2c1CN(C1COC1)C[C@]21CCOC1)[C@@H]1CC[C@H](C)N1C` [II-17]: the pIC50 was 9.00 in the data set with Ba/F3 cells KRAS G12V (Mus musculus, BaF3, 72 h); 8.70 in the data set on NCI-H727 cells; 8.30 in the data set on SK-CO-1 cells (Homo sapiens).
Turning to `C[C@H](Oc1nc(-c2noc3c2CCC[C@@]32CCCc3sc(N)c(C#N)c32)nc2c1CCC21CCOC1)[C@@H]1CCCN1C` (some centres unmarked) [II-18], in data set [1], the “HLM QH” value was 36%. Further, the negative logarithm of the IC50 (pIC50) with Ba/F3 cells KRAS G12V (Mus musculus, BaF3, 72 h) is 7.89; in the data set with SK-CO-1 cells (Homo sapiens), 7.10.
With `C[C@H](Oc1nc(-c2noc3c2CCC[C@@]32CCCc3sc(N)c(C#N)c32)nc2c1CC[C@]21CNCCO1)[C@@H]1C[C@@H](F)CN1C` [II-20], the “HLM QH” value in data set [1] was 36%. Further, the pIC50 in the data set on Ba/F3 cells KRAS G12V (72 h) was 7.02; in the data set on SK-CO-1 cells, 6.83.
